Assay results from US7858788B2, “Bicyclic carbamoylpyridone derivative having HIV integrase inhibitory activity” (Shionogi & Co., Ltd., priority 2005, dated 2010).

Target: HIV integrase (Human immunodeficiency virus type 1 group M subtype B, UniProt P04585)
Assay: HIV integrase inhibitory activity assay (immunoplate, substrate DNA / target DNA, OD405)
Format: biochemical
Conditions: read-out: Integrase inhibitory activity (IC50, ng/ml) (converted)
Protocol: The HIV integrase inhibitory activity was investigated based on the following assay method.
(1) Preparation of DNA Solution
By the same method as that described in Experimental Example 1 of WO 2004/024693, a substrate DNA solution (2 pmol/ml) and a target DNA solution (5 pmol/ml) were prepared. […] Each sequence of a substrate DNA and a target DNA is as described in the same Experimental Example.
(2) Measurement of Inhibition Rate (IC50 Value)
Streptavidin (manufactured by Vector Laboratories) was dissolved in a 0.1M carbonate buffer solution (composition: 90 mM Na2CO3, 10 mM NaHCO3) to a concentration of 40 μg/ml. Each […] of this solution was added to a well of an immunoplate (manufactured by NUNC), and this is allowed to stand at 4° C. overnight to adsorb. Then, each well was washed with a phosphate buffer (composition: 13.7 mM NaCl, 0.27 mM KCl, 0.43 mM Na2HPO4, 0.14 mM KH2PO4) two times, and […] of a phosphate buffer containing 1% skim milk was added to block it for 30 minutes. Further, each well was washed with a phosphate buffer two times, […] of a substrate DNA solution (2 pmol/ml) was added to adsorb at room temperature for 30 minutes while shaking, and this was washed with a phosphate buffer two times and, then, distilled water once.
Then, to each well prepared as described above were added 12 ml of a buffer (composition: 150 mM MOPS (pH7.2), 75 mM MnCl2, 50 mM 2-mercaptoethanol, 25% glycerol, 500 μg/ml bovine serum albumin-fraction V), and 51 ml of a reaction solution prepared from […] of distilled water. Then, 9 ml of an integrase solution (30 pmol) was added, and the mixture was mixed well. To a well as a negative control (NC) was added 9 ml of a diluting solution (composition: 20 mM MOPS (pH7.2), 400 mM potassium glutamete, 1 mM EDTA, 0.1% NP-40, 20% glycerol, 1 mM DTT, 4 M urea), and this was mixed well using a plate mixer. […]
C abs.; absorbance of well of compound
NC abs.: absorbance of NC
PC abs.: absorbance of PC

SMILES	IC50 [nM]
O=C(NCc1ccc(F)cc1)c1cn2ccn(Cc3ccc(F)cc3)c(=O)c2c(O)c1=O [Example A-30, 2-(4-Fluorobenzyl)-9-hydroxy-1,8-dioxo-1,8-dihydro-2H-pyrid[1,2-a]pyrazine-7-carboxylic acid 4-fluoro-benzylamide]	2.29
COCCN1CC(O)n2cc(C(=O)NCc3ccc(F)cc3)c(=O)c(O)c2C1=O [Example D-41, 4,9-Dihydroxy-2-(2-methoxy-ethyl)-1,8-dioxo-1,3,4,8-tetrahydro-2H-pyrid[1,2-a]pyrazine-7-carboxylic acid 4-fluoro-benzylamide]	7.89
COCCN1C(=O)c2c(O)c(=O)c(C(=O)NCc3ccc(F)cc3COC)cn2CC1O (stereo not drawn) [Example E-1, 3,9-Dihydroxy-2-(2-methoxy-ethyl)-1,8-dioxo-1,3,4,8-tetrahydro-2H-pyrid[1,2-a]pyrazine-7-carboxylic acid 4-fluoro-2-methoxymethyl-benzylamide]	11.1
